Drawing on US20070032477A1, “Pteridine derivatives useful for making pharmaceutical compositions” (priority 2003, published 2007), this text covers IC50 for 31 compounds.

The IC50 is the point on the concentration scale where inhibition reaches its midpoint. Read a low IC50 as inhibition by little substance.

Where a name gives a salt, the structure may show the parent alone.

For assay [1], the system named is mixed lymphocyte reaction (PBMC with allogeneic PBMC or Eppstein-Barr Virus-transformed human B cells as stimulator cells). Put plainly: Mixed lymphocyte reaction (MLR) assay. The assay is classed as cell-based. The note with it: lowest concentration giving 50% suppression of the MLR; [3H]-thymidine. The method, then:
Pteridine derivatives were first dissolved (10 mM) in dimethylsulfoxide (hereinafter referred as DMSO) and further diluted in culture medium before use for the following in vitro experiments. The commercially available culture medium consisted of RPMI-1640+10% foetal calf serum (FCS). Some pteridine derivatives described in the previous examples (as indicated in table 1) were tested in the following mixed lymphocyte reaction (MLR) assay.
Peripheral blood mononuclear cells (hereinafter referred as PBMC) were isolated from heparinized peripheral blood by density gradient centrifugation over Lymphoprep (Nycomed, Maorstua, Norway). Allogeneic PBMC or Eppstein-Barr Virus-transformed human B cells [commercially available under the trade name RPM11788 (ATCC name CCL156)] which strongly express B7-1 and B7-2 antigens were used as stimulator cells after irradiation with 30 Gy. MLR was performed in triplicate wells. After 5 days incubation at 37° C., 1 μCi [^3H]-thymidine was added to each cup. After a further 16 hours incubation, cells were harvested and counted in a […]. Inhibition of proliferation by a compound (drug) described in some of the previous examples was counted using the formula: [formula] wherein cpm is the thymidine count per minute. The MLR assay is regarded by those skilled in the art as an in vitro analogue of the transplant rejection since it is based on the recognition of allogeneic major histocompatibility antigens on the stimulator leukocytes, by responding lymphocytes.

The subject of assay [2] is production of TNF-α by PBMC in response to stimulation by LPS. Put plainly: TNF-α assay. The note with it: LPS 1 μg/ml, 72 hours, sandwich ELISA. It counts as cell-based, human. The method, then:
Peripheral blood mononuclear cells (herein referred as PBMC), in response to stimulation by lipopolysaccharide (hereinafter LPS), a gram-negative bacterial endotoxin, produce various […], in particular human TNF-α. Inhibition of the activation of PBMC can therefore be measured by the level of suppression of the production of TNF-α by PBMC in response to stimulation by LPS.
Such inhibition measurement was performed as follows: PBMC were isolated from heparinized peripheral blood by density gradient centrifugation over Lymphoprep (commercially available from Nycomed, Norway). LPS was then added to the PMBC suspension in complete medium (10^6 cells/ml) at a final concentration of 1 μg/ml. The pteridine derivative to be tested was added at different concentrations (0.1 μM, 1 μM and 10 μM) and the cells were incubated at 37° C. for 72 hours in 5% CO2. The supernatants were collected, then TNF-α concentrations were measured with respectively an anti-TNF-α antibody in a sandwich ELISA (Duo Set ELISA human TNFα, commercially available from R&D Systems, United Kingdom). The calorimetric reading of the ELISA was measured by a Multiskan RC plate reader (commercially available from ThermoLabsystems, Finland) at 450 nm (reference wavelength: 690 nm). Data analysis was performed with Ascent software 2.6. (also from ThermoLabsystems, Finland): a standard curve (recombinant human TNFα) was drawn and the amount (pg/ml) of each sample on the standard curve was determined.
The % suppression of human TNFα production by the pteridine derivatives of the invention (drugs) was calculated using the formula: [formula]
In general terms: An ELISA detects its analyte on a solid surface through an enzyme-linked reagent.

As for “2-amino-6-(3,4-dimethoxyphenyl)-4-((tetrahydrofurfuryl)-piperazin-1-yl)pteridine [Example 169]”, the IC50 in assay [1] amounted to 800 nM; in assay [2], 300 nM. The matching figures for `COc1ccc(-c2cnc3nc(N)nc(N4CCN(C(=O)N5CCCC5)CC4)c3n2)cc1OC` [Example 38, 2-amino-4-[(N-1-pyrrolidinylcarbonyl)-piperazin-1-yl]-6-(3,4-dimethoxy-phenyl)pteridine]: 300 nM and 60 nM. For `CCCCc1ccc(C(=O)N2CCN(c3nc(N)nc4ncc(-c5ccc(OC)c(OC)c5)nc34)CC2)cc1` [Example 18, 2-amino-4-[(N-4-butylbenzoyl)-piperazin-1-yl]-6-(3,4-dimethoxyphenyl)pteridine] the same measures were 300 nM and 90 nM. Turning to `COCCN1CCN(c2nc(N)nc3ncc(-c4ccc(OC)c(OC)c4)nc23)CC1` [Example 122, 2-amino-4-(1-(2-methoxyethyl)piperazino)-6-(3,4-dimethoxyphenyl)pteridine], in assay [1], the half-inhibitory concentration (IC50) came out at 800 nM. For `COc1ccc(-c2cnc3nc(N)nc(N4CCN(CC(C)C)CC4)c3n2)cc1OC` [Example 168, 2-amino-6-(3,4-dimethoxyphenyl)-4-(1-isobutyl-piperazin-1-yl)pteridine], the IC50 in assay [1] is 1600 nM; in assay [2], 90 nM. The compound `COc1ccc(-c2cnc3nc(N)nc(N4CCN(Cc5ccc(C)cc5)CC4)c3n2)cc1OC` [Example 140, 2-amino-4-((4-methylbenzyl)piperazin-1-yl)-6-(3,4-dimethoxyphenyl)pteridine] returned a half-inhibitory concentration (IC50) in assay [2] of 1300 nM. Same read-out and setting: to `COc1ccc(-c2cnc3nc(N)nc(N4CCN(C(=O)CN(C)C)CC4)c3n2)cc1OC` [Example 113, 2-amino-4-[N-[4-(dimethylamino)acetyl]-piperazin-1-yl]-6-(3,4-dimethoxy-phenyl)pteridine] belongs 3200 nM. For `CC(=O)N1CCN(c2nc(N)nc3ncc(-c4ccccc4)nc23)CC1` [Example 55, 2-amino-4-(N-acetylpiperazin-1-yl)-6-phenyl-pteridine], in assay [1], the IC50 stood at 5100 nM. With `CCOC(=O)CN1CCN(c2nc(N)nc3ncc(-c4ccc(OC)c(OC)c4)nc23)CC1` [Example 135, 2-amino-4-(2-(piperazin-1-yl)-acetic acid ethyl ester)-6-(3,4-dimethoxyphenyl)pteridine], in assay [2], it took 270 nM to reach half-maximal inhibition (IC50). With `COc1ccc(-c2cnc3nc(N)nc(N4CCN(C(=O)Nc5ccc(Br)cc5)CC4)c3n2)cc1OC` [Example 196, 2-amino-4-(N-4-bromo-phenyl-carbamoyl-piperazin-1-yl)-6-(3,4-dimethoxyphenyl)pteridine], half-maximal inhibition in assay [1] (IC50) was put at 100 nM.

For the compound `CCN(C(=O)N1CCN(c2nc(N)nc3ncc(-c4ccc(OC)c(OC)c4)nc23)CC1)c1ccccc1` [Example 118, 2-amino-4-(N-ethyl-N-phenyl-carbamoyl-piperazin-1-yl)-6-(3,4-dimethoxyphenyl)pteridine], in assay [2], the half-maximal inhibitory concentration (IC50) is 70 nM.

For `COc1ccc(-c2cnc3nc(N)nc(N4CCN(Cc5ccc6c(c5)OCO6)CC4)c3n2)cc1OC` [Example 143, 2-amino-4-(piperonyl-piperazin-1-yl)-6-(3,4-dimethoxyphenyl)pteridine], in assay [2], the IC50 was determined as 800 nM.

With `CC(=O)N1CCN(c2nc(N)nc3ncc(-c4ccc(Cl)cc4)nc23)CC1` [Example 58, 2-amino-4-(N-acetylpiperazin-1-yl)-6-(4-chloro-phenyl)pteridine], in assay [1], the IC50 is 7600 nM. The same measure, in the same setting: to `COc1ccc(-c2cnc3nc(N)nc(N4CCN(C(=O)Nc5ccc(C(F)(F)F)cc5)CC4)c3n2)cc1OC` [Example 194, 2-amino-4-(N-4-trifluoromethyl-phenyl-carbamoyl-piperazin-1-yl)-6-(3,4-dimethoxyphenyl)pteridine] belongs 52 nM. `COc1ccc(-c2cnc3nc(N)nc(N4CCN(CC5OCCO5)CC4)c3n2)cc1OC` [Example 170, 2-amino-6-(3,4-dimethoxyphenyl)-4-(1,3-dioxolan-2-yl-methylpiperazin-1-yl)pteridine] showed an IC50 in assay [2] of 400 nM. Turning to `COc1ccc(-c2cnc3nc(N)nc(N4CCN(C(=O)Nc5cccc(I)c5)CC4)c3n2)cc1OC` [Example 197, 2-amino-4-(N-3-iodo-phenyl-carbamoyl-piperazin-1-yl)-6-(3,4-dimethoxyphenyl)pteridine], the IC50 in assay [1] worked out at 40 nM. Same read-out and setting: to `COc1ccc(-c2cnc3nc(N)nc(N4CCN(C(=O)[C@@H](N)CC(N)=O)CC4)c3n2)cc1OC` [Example 111, 2-amino-4-[N-[2-(S),4-diamino-4-oxobutanoyl]-piperazin-1-yl]-6-(3,4-dimethoxyphenyl)pteridine] belongs 8800 nM. As for `COc1ccc(-c2cnc3nc(N)nc(N4CCN(C(=O)c5cc(F)c(Cl)nc5Cl)CC4)c3n2)cc1OC` [Example 40], half-maximal inhibition in assay [2] (IC50) was put at 700 nM. As for `COc1cc(-c2cnc3nc(N)nc(N4CCN(c5ccc(C)cc5)CC4)c3n2)ccc1OC(C)C` [Example 208], the IC50 in assay [1] amounted to 4400 nM.

For `COCC(=O)N1CCN(c2nc(N)nc3ncc(-c4ccc(OC)c(OC)c4)nc23)CC1` [Example 41, 2-amino-4-[(N-methoxyacetyl)-piperazin-1-yl]-6-(3,4-dimethoxyphenyl)pteridine], 500 nM corresponded to half-maximal inhibition in assay [1] (IC50). Turning to `COC(=O)c1ccc(C(=O)N2CCN(c3nc(N)nc4ncc(-c5ccc(OC)c(OC)c5)nc34)CC2)cc1` [Example 112, 2-amino-4-[N-[4-(methoxycarbonyl)benzoyl]-piperazin-1-yl]-6-(3,4-dimethoxy-phenyl)pteridine], in assay [2], the IC50 came out at 280 nM.

For the compound `COc1ccc(-c2cnc3nc(N)nc(N4CCN(CCN(C)C)CC4)c3n2)cc1OC` [Example 181, 2-amino-6-(3,4-dimethoxyphenyl)-4-(4-(2-dimethylaminoethyl)-piperazin-1-yl)-pteridine trihydrochloride salt], the IC50 in assay [2] (Homo sapiens) was 8800 nM. `COc1ccc(-c2cnc3nc(N)nc(N4CCN(c5cccc(C)c5)CC4)c3n2)cc1OC` [Example 175, 2-amino-6-(3,4-dimethoxyphenyl)-4-((3-methylphenyl)-piperazin-1-yl)pteridine] gave a concentration for half-maximal inhibition (IC50) in assay [1] of 400 nM. In the case of `COc1ccc(-c2cnc3nc(N)nc(N4CCN(Cc5ccc(F)cc5)CC4)c3n2)cc1OC` [Example 138, 2-amino-4-((4-fluorobenzyl)piperazin-1-yl)-6-(3,4-dimethoxyphenyl)pteridine], in assay [1], the IC50 was determined as 6000 nM. Compound `COc1ccc(-c2cnc3nc(N)nc(N4CCN(Cc5cccnc5)CC4)c3n2)cc1OC` [Example 156] had an IC50 in assay [2] of 400 nM. `COc1ccc(-c2cnc3nc(N)nc(N4CCN(C(=O)NCc5ccccc5)CC4)c3n2)cc1OC` [Example 104, 2-amino-4-(N-benzylcarbamoyl-piperazin-1-yl)-6-(3,4-dimethoxyphenyl)pteridine] registered an IC50 in assay [1] of 18 nM. “2-amino-4-(1-(2-imidazol-1-yl-ethyl-piperazine)-6-(3,4-dimethoxyphenyl)pteridine [Example 155]”: inhibition in assay [1] was half-maximal at 3600 nM (IC50). For the compound `COc1ccc(-c2cnc3nc(N)nc(N4CCN(C(C)=O)CC4)c3n2)cc1OC` [Example 8, 2-amino-4-(N-acetylpiperazin-1-yl)-6-(3,4-dimethoxyphenyl)pteridine], the 50% inhibitory concentration (IC50) in assay [2] amounted to 400 nM. For the compound `COc1ccc(-c2cnc3nc(N)nc(N4CCN(C(=O)c5ccoc5)CC4)c3n2)cc1OC` [Example 47, 2-amino-4-[N-(3-furoylcarbonyl)-piperazin-1-yl]-6-(3,4-dimethoxyphenyl)pteridine], in assay [1], the midpoint of inhibition, the IC50, lay at 300 nM.

Compound `COc1ccc(-c2cnc3nc(N)nc(N4CCN(CCCN(C)C)CC4)c3n2)cc1OC` [Example 182, 2-amino-6-(3,4-dimethoxyphenyl)-4-(4-(3-dimethylaminopropyl)-piperazin-1-yl)pteridine trihydrochloride salt] came in with an IC50 in assay [2] (Homo sapiens) of 4800 nM.

As to `COc1ccc(-c2cnc3nc(N)nc(N4CCN(C(=O)[C@@H]5CCCN5)CC4)c3n2)cc1OC` [Example 62, 2-amino-4-[N-(pyrrolidin-2-(S)-yl)carbonyl-piperazin-1-yl]-6-(3,4-dimethoxy-phenyl)pteridine], the IC50 in assay [2] is 7600 nM.
